Measurements taken from patent US7265091B2, “Methods and compositions for treating male erectile dysfunction” (The Regents of the University of California, priority 2000, dated 2007).
Where “and” joins values, the source holds several entries; their conditions need not be identical. Identical values can stand only once.

Tests used:
[1] = tested on: cavernous nerve injury in rats; assay: Maximal intracavernous pressure after bilateral cavernous nerve freezing (Example 9, VENT); assay type: in vivo, rat; conditions: 3 months after bilateral cavernous nerve freezing, intracavernous injection
Procedure: (§1) Three months old Sprague-Dawley rats (N=30) were used: 6 underwent a sham operation; 24 underwent bilateral cavernous nerve freezing and then randomly divided into four groups of 6 each. The four groups of rats received intracavernous injection of one of the following: 1) phosphate buffered saline (PBS), 2) VEGF protein (4 μg), 3) adeno-associated virus (AAV)-BDNF, and 4). VEGF+AAV-BDNF. Erectile function was assessed by cavernous nerve electrostimulation 3 months later and samples of penile tissue were obtained for electron microscopy and immunohistochemical studies.

[2] = tested on: established venogenic erectile dysfunction in castrated rats; conditions: castrated rats with venous leak, 1 month following VEGF treatment
Procedure: These animals (n=8) were treated with intracavernous VEGF protein and then after one month cavernosometry repeated to measure the effect of VEGF treatment.
(§2) A 1.5 cm oblique incision was made in the lower abdominal skin extending from the midline just above the penile hilum to below the level of the glans about 1 cm lateral to the midline. The skin was sharply dissected from the anterior surface of the penis and then the penis was retracted anteriorly using a towel clamp placed around it atraumatically with the foreskin left intact. Using blunt dissection the penile base and crura were exposed. The ischiocavernosus muscles were sharply dissected off the anterior surface of the crus until the white of the tunica albuginea of the corpora cavernosa was identified. The crus was then gently cannulated using a 23 gage butterfly needle, and saline flush with a visual erectile response was used to confirm that the needle tip was truly intracavernosal. The intracavernosal injections were then administered with either VEGF protein (Calbiochem, La Jolla, Calif. #676472) at the dosage 4 ug/injection (in 0.1 cc PBS with 0.1% BSA), AAV-VEGF (10^10 viral particles in 0.1 cc NS), AAV-LacZ (10^10 viral particles in 0.1 cc NS), or 0.1 ml NS alone. The AAV-VEGF and AAV-LacZ constructs were a generous gift from Dr. Yuet W. Kan (Howard Hughes Medical Research Institute, San Francisco, Calif.).^19,20 Following injection, the needle was left in place for 5 minutes and then removed to allow the medication to diffuse throughout the cavernosal space. Immediately thereafter, pinpoint electrocautery was applied to the needle hole for hemostasis and then the wound was closed and the animal recovered as above.
To perform pharmacologic cavemosometry, both the right and left crura were separately cannulated using 23 gauge butterfly needles as described above. […] The baseline ICP was recorded (flaccid ICP) and then a dose of papavarine (1 mg in 0.1 cc NS) was administered through the infusion cannula. […] After 5 minutes more, the ICP was again recorded (ICP after papavarine) and the infusion started. […] By slowly adjusting the inflow rate, an intracorporal pressure of 100 cm H2O (erectile pressure) was reached and the infusion rate required to maintain this pressure recorded (the maintenance rate). After this pressure was steady for 20 seconds, the infusion was terminated and the change in ICP over the subsequent 60 seconds was recorded (the drop rate).

[3] = tested on: cavernous smooth muscle cells (CSMC); conditions: CSMC from rats of all ages, three days, serum-free medium
Procedure: Each primary culture of CSMC was prepared from the corpora cavernosa of 2-3 rats by the following procedure. The penis was cleared of the urethra, blood vessels, fat and connective tissue. The remaining smooth muscle tissue was washed 3 times in sterile PBS (phosphate-buffered saline) and cut into 2-3 mm^3 segments. The segments were placed evenly onto a 100-mm cell culture dish (Falcon-Becton Dickinson Labware, Franklin Lakes, N.J.) inside a cell culture hood. Approximately 10 min later, 10 ml of Dulbecco's Modified Eagle Medium (DMEM) containing penicillin (100 units/ml), streptomycin (100 μg/ml), and 10% FBS was carefully pipetted into the dish. The dish was then kept undisturbed in a humidified 37° C. incubator with 5% CO2. Five days later, tissue segments that have detached from the dish were removed, and the medium was replaced with fresh medium. Another 5 days later, all tissue segments were removed and the medium was again replaced with fresh medium. When small islands of cells were noticeable, they were trypsinized and transferred to a fresh culture dish. […]
Cell proliferation assays were performed with the CellTiter-96 kit from Promega Inc. (Madison, Wis.). […] After 4 hr of further incubation at 37° C. in the humidified, 5% CO2 incubator, color development, which reflects cell numbers, was recorded with a plate reader (Molecular Devices Corp., Sunnyvale, Calif.) at 490-nm absorbance. […]

[4] = tested on: Rodent Model of Neurogenic Erectile Dysfunction; conditions: VEGF 4 ug intracavernous, three months after bilateral cavernous nerve freezing
Procedure: Seventeen 3 months old Sprague Dowry rats underwent bilateral freezing of the cavernous nerves with a thermocouple immersed in liquid nitrogen. Through an abdominal incision both cavernous nerves were isolated lateral to the prostate and frozen with thermocouple for one minute twice (temperature cycle −130° C. to −3° C.). Minutes later, intracavernous injection of saline (n=7) or VEGF, 4 ug, (n=9) was given. Three months later, all rats underwent re-exploration and electrostimulation of the cavernous nerves to assess erectile function. Eight additional rats underwent exploration only (sham group)

[5] = tested on: venogenic erectile dysfunction in castrated rats; assay: Pharmacologic cavernosometry, prevention trial in castrated rats (Experiment 2); assay type: in vivo, rat; conditions: castrated rats treated at castration, cavernosometry 9 weeks after castration
Source text: For the prevention trial of VEGF in rats with venogenic erectile ED, adult males were castrated and immediately treated with hormone, intracavernosal VEGF. […] Control animals received an silastic implant containing saline (n=3), an intracavernous injection of normal saline (n=3) or an […] transfection vector expressing lacZ reporter gene without the VEGF gene (AAV-LacZ, n=11).
as §2
Following castration, testosterone- or saline-filled silastic implants were placed in the subcutaneous tissue of the anterior abdominal wall, as previously described.^17 Implants were prepared using sterile silastic tubing (Dow Coming, Midland, Mich. #602-265, inner diameter 0.062″) that was filled with testosterone propionate powder (Sigma Chemical, St. Louis, Mo.) with the aid of wall suction.
To perform pharmacologic cavemosometry, both the right and left crura were separately cannulated using 23 gauge butterfly needles as described above. One cannula was flushed with sterile heparinized saline (100 U heparin/ml NS) and attached to a pressure detector for continuous intracorporal pressure (ICP) monitoring as previously described.^11 The contralateral cannula was attached to an infusion pump (Harvard Pump, Southwick, Mass. #55-2222), filled with sterile dilute heparinized saline (20 U heparin/ml NS). The baseline ICP was recorded (flaccid ICP) and then a dose of papavarine (1 mg in 0.1 cc NS) was administered through the infusion cannula. Five minutes was allowed for the papavarine to diffuse throughout the corpora and then the infusion cannula was flushed with heparinized saline and the pressure monitor cannula vented to normalize ICP after flushing. After 5 minutes more, the ICP was again recorded (ICP after papavarine) and the infusion started. An infusion rate of 0.05 ml/min was started and increased (by 0.05 ml/min every 10 seconds) until the ICP started to rise. Subsequent increases in inflow rate were made only after the ICP reached a plateau pressure. By slowly adjusting the inflow rate, an intracorporal pressure of 100 cm H2O (erectile pressure) was reached and the infusion rate required to maintain this pressure recorded (the maintenance rate). After this pressure was steady for 20 seconds, the infusion was terminated and the change in ICP over the subsequent 60 seconds was recorded (the drop rate).

[6] = tested on: dorsal nerve, intracavernous smooth muscle cells and endothelial cells; assay: Transmission electron microscopy of penile tissue (Example 2); assay type: in vivo, rat
Source text: Thick sections were cut and stained with toluidine blue to select specific areas for thin sectioning. Thin sections were cut, stained with both uranyl acetate and Reynold's Lead, and examined under the Phillips Tecnai 10 transmission electron microscope. Penile tissues from 4 randomly chosen rats in each subgroups were subjected to electron microscopic examinations.

[7] = tested on: Erectile Dysfunction Induced by Hypercholesterolemia in a Rat Model; assay: Erectile function in rats fed a high cholesterol diet (Example 5); assay type: in vivo; conditions: 6 months cholesterol diet, 4 months after intracavernous treatment
Procedure: Twenty-one Sprague-Dawley rats were used. All rats were fed a 2.5% cholesterol diet with added lard starting at 2 weeks of age for 6 months. The rats were divided into three groups. All groups after two months of a high cholesterol diet underwent serum evaluation of cholesterol and intracavernous injection of saline or treatment. Group 1, the control group, received intracavernous injection of saline, group 2, the VEGF group, received intracavernous injection of 4 ug of VEGF, and group 3, the AAV-BDNF group received 15 ug of BDNF. After six months of cholesterol diet and 4 months of treatment, all rats were subjected to cavernous nerve electrostimulation, cavernosometry with intracavernous papaverine injection, and infusion cavernosometry with heparinized saline to measure erectile function.

[8] = tested on: nNOS-positive nerve fibers in dorsal and intracavernous nerves; conditions: 2 & 4 μg VEGF, week 6; not statistically significant
[9] = tested on: blood vessels and nerve fibers in the penis; assay: Penile tissue histology, nNOS staining and electron microscopy (Example 9); assay type: in vivo, rat; conditions: 3 months after bilateral cavernous nerve freezing
Procedure: as §1

[10] = castrated rats treated with VEGF or AAV-VEGF (pooled)

## VEGF
[1]
  maximal intracavernous pressure (MICP), mean±SEM: 37.33±3.29 cm H2O
[2]
  Drop Rate in 1 min.: 17.4 cm H2O and 17.4(+/−24) cm H2O
  Flaccid ICP: 25.3 cm H2O
  ICP After Papavarine: 84 cm H2O and 83.9 cm H2O
  Maintenance Rate: 0.08 ml/min and 0.08(+/−0.15) ml/min
[3]
  optimal dosage of VEGF for CSMC growth rate: 12.5 ng/mL
[4]
  maximal intracavernous pressure: 72.78±10.87 cm H2O
[5]
  Drop Rate in 1 min.: 9.0(+/−20) cm H2O
  Flaccid ICP: 27.8 cm H2O
  ICP After Papavarine: 85.0(+/−28) cm H2O
  Maintenance Rate: 0.04(+/−0.09) ml/min
[6]; castrated rats
  endothelial cells lining capillaries and sinusoids: endothelial hypertrophy and hyperplasia
[6]; [10]
  mean diameter of non-myelinated axons, dorsal nerve: 0.96±0.33 μm
  mean diameter of the myelinated nerve, dorsal nerve: 2.36±0.92 μm
  mean thickness of myelin sheath, dorsal nerve: 0.93±0.44 μm
[6]; castrated rats, compared to castrated+Lac Z rats
  intracavernous smooth muscle morphology: arranged in clusters with minimal intercellular spaces
[7]
  effect on erectile dysfunction caused by high cholesterol diet: seem to reverse the erectile dysfunction
  sustained intracavernous pressures during the pharmacologic erection phase of cavernosometry, vs high cholesterol controls: significantly higher
[8]
  recovery of nNOS-positive nerve fibers in dorsal and intracavernous nerves: moderate recovery
[9]
  nNOS positive nerve fibers in the dorsal nerves compared to PBS group: increased number
